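Step 1: Grow cells in 96-well plates. Step 2: Expose to compound for 48 hours at 5 concentrations. Step 3: Interpolate endpoints linearly; if unreached, use highest concentration. At the GI50, growth is halved.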 The source made the active and inactive calls. Rule as the data show it: active = GI50 up to about 1.1 µM and inactive = higher.
How the values were obtained:
Assay in all cases: NCI-60 cell line screen, 48 h
NCI-H226 = test system: NCI-H226
SK-OV-3 = test system: SK-OV-3
UACC-62 = test system: UACC-62
HL-60 = test system: HL-60
MDA-MB-435 = test system: MDA-MB-435
SK-MEL-2 = test system: SK-MEL-2
OVCAR-4 = test system: OVCAR-4
T47D = test system: T47D
OVCAR-5 = test system: OVCAR-5
PC-3 = test system: PC-3
SF-539 = test system: SF-539
M14 = test system: M14
SN12C = test system: SN12C
LOX IMVI = test system: LOX IMVI
IGROV-1 = test system: IGROV-1
SR = test system: SR
COLO 205 = test system: COLO 205
SK-MEL-28 = test system: SK-MEL-28
ACHN = test system: ACHN
A498 = test system: A498

Row | SMILES | GI50 (NCI-H226) | GI50 (SK-OV-3) | GI50 (UACC-62) | GI50 (HL-60) | GI50 (MDA-MB-435) | GI50 (SK-MEL-2) | GI50 (OVCAR-4) | GI50 (T47D) | GI50 (OVCAR-5) | GI50 (PC-3) | GI50 (SF-539) | GI50 (M14) | GI50 (SN12C) | GI50 (LOX IMVI) | GI50 (IGROV-1) | GI50 (SR) | GI50 (COLO 205) | GI50 (SK-MEL-28) | GI50 (ACHN) | GI50 (A498)
1 | COC(=O)CCc1ccc2c(c1)CCC2 | > 100 µM (inactive) | > 100 µM (inactive) | > 100 µM (inactive) | > 100 µM (inactive) | > 100 µM (inactive) | > 100 µM (inactive) | > 100 µM (inactive) | > 100 µM (inactive) | > 100 µM (inactive) | > 100 µM (inactive) | > 100 µM (inactive) | > 100 µM (inactive) | > 100 µM (inactive) | > 100 µM (inactive) | > 100 µM (inactive) | > 100 µM (inactive) | > 100 µM (inactive) | > 100 µM (inactive) | > 100 µM (inactive) | 
2 | Cc1cccc2c1CC(Cc1ccccc1C(=O)O)C2=O (stereo unspecified) | > 100 µM (inactive) | > 100 µM (inactive) | > 100 µM (inactive) | > 100 µM (inactive) | > 100 µM (inactive) | > 100 µM (inactive) | > 100 µM (inactive) | > 100 µM (inactive) | > 100 µM (inactive) | > 100 µM (inactive) | > 100 µM (inactive) | > 100 µM (inactive) | > 100 µM (inactive) | > 100 µM (inactive) | > 100 µM (inactive) | > 100 µM (inactive) | > 100 µM (inactive) | > 100 µM (inactive) | > 100 µM (inactive) | 
3 | COc1ccc(/N=N/C(=N\c2ccc(Cl)cc2)c2ccc(N(CCC#N)CCC#N)cc2)cc1 | > 100 µM (inactive) | > 100 µM (inactive) | 1.49 µM (inactive) |  | 7.23 µM (inactive) | 0.851 µM (active) | 10.1 µM (inactive) | 1.71 µM (inactive) | 47 µM (inactive) | 25.5 µM (inactive) | > 100 µM (inactive) | 57.5 µM (inactive) | > 100 µM (inactive) |  | 56.4 µM (inactive) | 0.834 µM (active) | 5.19 µM (inactive) | > 100 µM (inactive) | 19.9 µM (inactive) | 10.4 µM (inactive)
4 | O=C1CSC(c2ccc(Cl)cc2)N1c1ccc(-n2c(-c3ccccc3)nc3ccccc3c2=O)cc1 (stereo unspecified) | > 100 µM (inactive) | > 100 µM (inactive) | 19.8 µM (inactive) |  | 56 µM (inactive) | > 100 µM (inactive) | 12.9 µM (inactive) | 8.36 µM (inactive) | > 100 µM (inactive) | 53.8 µM (inactive) | > 100 µM (inactive) | > 100 µM (inactive) | > 100 µM (inactive) | 50.8 µM (inactive) | 31.9 µM (inactive) | 77.4 µM (inactive) | > 100 µM (inactive) | > 100 µM (inactive) | > 100 µM (inactive) | 83.4 µM (inactive)
5 | Cn1c2ccccc2c(=NNc2ccc(C(=O)O)cc2)c2ccccc21 | 17.7 µM (inactive) | 17.3 µM (inactive) | 18.5 µM (inactive) | 14.6 µM (inactive) | 19 µM (inactive) | 19.6 µM (inactive) | 12.9 µM (inactive) | 13.4 µM (inactive) | 17.8 µM (inactive) | 14.1 µM (inactive) | 19.2 µM (inactive) | 16.9 µM (inactive) | 18.1 µM (inactive) | 10.6 µM (inactive) | 20.1 µM (inactive) | 13.8 µM (inactive) | 15.3 µM (inactive) | 26 µM (inactive) | 15.3 µM (inactive) | 
6 | O=C(O)C12CCC(CC1=O)C2 (stereo unspecified) | > 100 µM (inactive) | > 100 µM (inactive) | > 100 µM (inactive) | > 100 µM (inactive) | > 100 µM (inactive) | > 100 µM (inactive) | > 100 µM (inactive) | > 100 µM (inactive) | > 100 µM (inactive) | > 100 µM (inactive) |  | > 100 µM (inactive) | > 100 µM (inactive) | > 100 µM (inactive) | > 100 µM (inactive) | > 100 µM (inactive) | > 100 µM (inactive) | > 100 µM (inactive) | > 100 µM (inactive) | 
7 | O=C(Nc1ccc(Cl)cc1)[C-](C(=O)c1ccc(Br)cc1)[n+]1cccc(-c2ccc(Cl)cc2)n1 |  | 6.35 µM (inactive) | 3.85 µM (inactive) |  | 3.07 µM (inactive) | 3.57 µM (inactive) | 3.65 µM (inactive) | 1.64 µM (inactive) | 4.24 µM (inactive) | 3.95 µM (inactive) |  | 3.68 µM (inactive) | 2.88 µM (inactive) | 2.97 µM (inactive) | 2.77 µM (inactive) | 2.27 µM (inactive) | 4.15 µM (inactive) | 8.77 µM (inactive) | 4.84 µM (inactive) | 9.71 µM (inactive)
8 | OCCCSc1ccccc1SCCCO |  | > 100 µM (inactive) | > 100 µM (inactive) | > 100 µM (inactive) | > 100 µM (inactive) |  | > 100 µM (inactive) | > 100 µM (inactive) | > 100 µM (inactive) | > 100 µM (inactive) | > 100 µM (inactive) | > 100 µM (inactive) | > 100 µM (inactive) | > 100 µM (inactive) | > 100 µM (inactive) | > 100 µM (inactive) | > 100 µM (inactive) | > 100 µM (inactive) |  | 
9 | CC(C)C(C/C=C1\CC(CO)(COC(=O)C2CCCCC2)OC1=O)C(C)C (stereo unspecified) | 18.2 µM (inactive) | > 100 µM (inactive) | 43.8 µM (inactive) |  | 44.8 µM (inactive) | > 100 µM (inactive) | 18 µM (inactive) | 21.2 µM (inactive) | 20 µM (inactive) | 18.2 µM (inactive) | 20.3 µM (inactive) | 21.8 µM (inactive) | 16.7 µM (inactive) | 15.7 µM (inactive) | 22.9 µM (inactive) | 27 µM (inactive) | 10.3 µM (inactive) | 16.6 µM (inactive) | 16 µM (inactive) | 44.8 µM (inactive)
10 | c1ccc(CSSSCc2ccccc2)cc1 [DIBENZYL TRISULFIDE] |  | 3.61 µM (inactive) | 2.15 µM (inactive) | 0.378 µM (active) | 0.568 µM (active) | 1.08 µM (active) | 2.3 µM (inactive) | 19.8 µM (inactive) | 3.62 µM (inactive) | 1.32 µM (inactive) |  | 2.27 µM (inactive) | 0.912 µM (active) | 0.621 µM (active) | 2.8 µM (inactive) | 4.06 µM (inactive) | 1.87 µM (inactive) | 20.7 µM (inactive) | 1.69 µM (inactive) | 18.6 µM (inactive)
11 | COc1ccc(/C=C/c2cc(OC)cc(=O)o2)cc1 [YANGONIN] | > 100 µM (inactive) | 91.4 µM (inactive) | 63.1 µM (inactive) | > 100 µM (inactive) | > 100 µM (inactive) | 72.1 µM (inactive) | > 100 µM (inactive) | > 100 µM (inactive) | > 100 µM (inactive) | > 100 µM (inactive) | 10.2 µM (inactive) | 68.4 µM (inactive) | > 100 µM (inactive) | > 100 µM (inactive) | > 100 µM (inactive) | > 100 µM (inactive) | > 100 µM (inactive) | > 100 µM (inactive) | 61.7 µM (inactive) | 
